# Data from patent US10220019B2, “Method for treating pulmonary fibrosis comprising application of dimethylamino micheliolide” (Tianjin International Joint Academy of Biotechnology & …, priority 2016, dated 2019).
# Test system: mouse pulmonary fibrosis model
# Assay: Mouse pulmonary fibrosis model and pharmacodynamics test of ACT001
# Type: in vivo, Kunming mice (male)
# Procedure: a) Preparation of ACT001 solution: 1 g ACT001 powder was weighed and dissolved in 100 mL 0.9% normal saline solution to prepare 10 mg/mL solution. When it was fully dissolved, it was filter sterilized with 0.22 μm filter for use, and was freshly prepared each time before use. The preparation and the use of the solution should be performed in a sterile biosafety cabinet.
# b) Preparation of ethyl viologen hydrate solution: 2 g ethyl viologen hydrate was weighed and dissolved in 100 mL 0.9% normal saline to prepare 20 mg/mL solution. When it was fully dissolved, it was filter sterilized with 0.22 μm filter for use, and was freshly prepared each time before each use. The preparation and the use of the solution should be performed in a sterile biosafety cabinet.
# Randomly divide 36 mice into three groups: normal group, control group (pulmonary fibrosis model group), ACT001 group (administering ACT001 after modeling), and 12 animals per group. Conduct a one-off intragastric administration of 0.15 mL of 0.9% normal saline to each animal in the normal group; and conduct a one-off intragastric administration of 0.15 mL of the ethyl viologen hydrate solution to each animal in the control group and ACT001 group.
# 3 weeks after modeling, drug treatment was given to the mice. Conduct an intragastric administration of 0.1 mL of 0.9% normal saline to each animal in the normal and control groups, and conduct an intragastric administration of 0.1 mL ACT001 aqueous solution to each animal in the ACT001 group. Once every 2 days.
# At the third week after modeling, the second week after drug administration, and the third week after drug administration, four mice were each taken from the normal group, control group and ACT001 group, sacrificed by breaking their necks, their lung tissues were sampled, after fixing the tissues with 10% formalin for two days, the fixing solution on the surface of the lung tissues was washed away with running water, the lung tissues were then dehydrated with a pathological tissue dehydration machine, the tissues were embed in paraffin, the embedded tissues were sectioned, H.E. staining was conducted and slides were covered before observing the changes of the lung tissues under microscope.
# [1] = after 3 weeks of drug administration
# [2] = second week after ACT001 administration, intragastric 0.1 mL once every 2 days
compound,measurement,setting,value
"CC1=C2CC[C@@](C)(O)C2[C@H]2OC(=O)[C@@H](CN(C)C)[C@@H]2CC1 (stereo partly shown) [ACT001, dimethylamino micheliolide]",difference in pulmonary coefficient versus the normal group,[1],no significant difference
same,pulmonary coefficient lower relative to the control group,[1],0.47%
same,average lung weight,"after 3 weeks of drug administration, normal group 0.4012 g, control group 0.5983 g",0.4034 g
same,average of pulmonary coefficient (lung wet mass/body weight*100%),"after 3 weeks of drug administration, normal group 0.81%, control group 1.32%",0.85%
same,average body weight,"after 3 weeks of drug administration, normal group 49.2352 g, control group 45.4575 g",47.576 g
same,blood supply in the lung tissue (lung tissue morphology under stereoscopic microscope),"second week after ACT001 administration, intragastric 0.1 mL of 10 mg/mL solution once every 2 days, started 3 weeks after modeling, compared with control group",significant improvement of blood supply in the lung tissue
same,"alveolar structures (lung tissue section, H.E. staining)",[2],restored to normal
same,"deposition in the lung interstitials (lung tissue section, H.E. staining)",[2],significantly reduced
same,"fibrosis degree of the lung (lung tissue section, H.E. staining)","second week after ACT001 administration, intragastric 0.1 mL once every 2 days, compared with control group",significant improvement for the fibrosis degree of the lung
same,level of pulmonary fibrosis (lung tissue morphology and tissue section),"third week after ACT001 administration, compared with control group",significantly reduced
